Laboratory results as given in patent US20180146698A1, “FORMULA FEED FOR POULTRY” (JXTG Nippon Oil & Energy Corporation, priority 2015, published 2018).

Experiments:
Julia Light hens = experiment: Chicken egg color enhancement test 1: yolk color fan value, low- and standard-corn-content feed; type: in vivo, chickens
Protocol: A preparation of dry cells of a Paracoccus bacterium (with an astaxanthin content of 2%) and a paprika colorant preparation (with a t-capsanthin content of 0.25%) were used as coloring agents for evaluation. Cells of a nitrosoguanidine mutant strain obtained from the Paracoccus carotinifaciens E-396 strain (FERM BP-4283) were used as carotenoid-producing Paracoccus bacterial cells for a preparation of dry cells of a Paracoccus bacterium. The preparation was cultured in a seed flask medium and then cultured in a main culture medium at 28° C. under aerobic conditions until the bacterial cell concentration reached the maximum level. Next, the cultured cells were collected and recovered using a centrifuge. The recovered Paracoccus bacterial cells were dried using a double drum dryer at a drum rotation speed of 3.5 rpm and a drum temperature of 140° C. The average particle size (volume particle size D50) of the obtained power was approximately […]. The powder was further finely powderized (pulverized) using a jet mill (Seishin Enterprise Co., Ltd.) so that the average particle size (D50) became 9 μm. The obtained product was used as a preparation of dry cells of a Paracoccus bacterium. As a paprika colorant preparation, Color Up (a product with a total xanthophyll concentration of 5 g/kg, Kohkin Chemical Co., Ltd.) was used. The above preparations were added to a low-corn-content feed and a standard-corn-content feed listed in Table 1, thereby preparing formula feeds each containing astaxanthin or t-capsanthin at a final concentration of 1, 2, 4, or 8 ppm. Table 2 lists measured concentrations of astaxanthin and t-capsanthin contained in the actually produced formula feeds. Julia Light hens were used for tests. Ten chickens were provided for each test plot. The acclimatization period was set to 2 weeks. Eggs collected in Week 2, during which the color fan value became stabilized, or later, were evaluated. Eggs were collected from each test plot. The color fan values of 10 chicken eggs were measured using Egg Multitester EMT-7300 (JA Z-Tamago Co., Ltd.) for each test plot. The yolk carotenoid concentration was determined for 3 eggs for each test plot. FIGS. 1 and 2 show the relationship between the concentrations of astaxanthin and t-capsanthin in both feeds and the yolk color fan values of the obtained eggs. Based on the results of FIGS. 1 and 2, the concentrations of astaxanthin and t-capsanthin to be added to the low-corn-content feed in order to achieve a desired color fan value of 10 to 15 were calculated (Table 3). For example, in order to achieve a color fan value of 13, astaxanthin may be added to the low-corn-content feed so as to result in a final concentration of 2.2 ppm. Meanwhile, t-capsanthin needs to be added so as to result in a final concentration of 4.3 ppm.

chickens [1] = experiment: Yolk color measurement using colorimeter 1 (eggs of Example 5); type: in vivo; conditions: coloring agent 8 ppm or less; corn content 30% to 50%
Protocol: The yolk color was measured using a colorimeter (CM-700d, Konica Minolta Inc.) for eggs obtained in Example 5 and eggs obtained by using formula feeds listed in Table 5, which had been prepared by adding astaxanthin or t-capsanthin to a feed with a corn content of 40% so as to result in a final concentration of 2 ppm. FIGS. 9a to 9c show the measurement results of the L*, a*, and b* values, respectively.

chickens [2] = experiment: Yolk color measurement using colorimeter 2 (eggs of Example 8); type: in vivo; conditions: 2 ppm or 4 ppm; corn contents of 0% to 30%
Protocol: The yolk color of eggs obtained in Example 8 was measured using a colorimeter (CM-700d, Konica Minolta Inc.). FIGS. 14a to 14c show the measurement results of the L*, a*, and b* values, respectively.

[3] = desired CF value 10, low-corn-content feed
[4] = desired CF value 11, low-corn-content feed
[5] = desired CF value 12, low-corn-content feed
[6] = desired CF value 13, low-corn-content feed
[7] = desired CF value 14, low-corn-content feed

CC1=C(/C=C/C(C)=C/C=C/C(C)=C/C=C/C=C(C)/C=C/C=C(C)/C=C/C2=C(C)C(=O)[C@@H](O)CC2(C)C)C(C)(C)C[C@H](O)C1=O [Astaxanthin, astaxanthin]
amount of astaxanthin relative to t-capsanthin to achieve the desired color fan value (Julia Light hens; color fan value of 13, low-corn-content feed): approximately 51% | change of color fan value, low-corn-content vs standard-corn-content feed (Julia Light hens; colorant added at 4 ppm): increased | CF value (Julia Light hens; colorant added at 4 ppm, standard-corn-content feed): 12.8 | Astaxanthin/t-Capsanthin ratio (Julia Light hens; [3]): 0.56 | Colorant concentration in feed necessary for achieving the desired CF value (Julia Light hens; [3]): 1.0 ppm | Astaxanthin/t-Capsanthin ratio (Julia Light hens; [4]): 0.54 | Colorant concentration in feed necessary for achieving the desired CF value (Julia Light hens; [4]): 1.3 ppm | Astaxanthin/t-Capsanthin ratio (Julia Light hens; [5]): 0.53 | Colorant concentration in feed necessary for achieving the desired CF value (Julia Light hens; [5]): 1.7 ppm | Astaxanthin/t-Capsanthin ratio (Julia Light hens; [6]): 0.51 | Colorant concentration in feed necessary for achieving the desired CF value (Julia Light hens; [6]): 2.2 ppm | Astaxanthin/t-Capsanthin ratio (Julia Light hens; [7]): 0.53 | Colorant concentration in feed necessary for achieving the desired CF value (Julia Light hens; [7]): 3.2 ppm | Colorant concentration in feed necessary for achieving the desired CF value (Julia Light hens; desired CF value 15, low-corn-content feed): 7.0 ppm | a* value (red color) of yolk compared with t-capsanthin (chickens [1]): greater than that obtained with the addition of t-capsanthin | a* value (red color) of yolk in relation to corn content (chickens [2]): did not cause the a* value to significantly vary
